Experimental data taken from US20230107642A1 (Erasca, Inc., priority 2020, published 2023).

Target: T1, Cys12 of the KRAS 4B G12C protein (Homo sapiens, UniProt P01116, G12C)
T1 construct: This protein contained 188 amino acids in total, including an N-terminal 6-Histidine tag; made in house; host or cells: E. coli BL21
Test: In vitro covalent adduct formation (CAF) assay, LC-MS intact mass
Assay type: binding
Conditions: 10 uM compound, 60 min
Procedure, shortened: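 GDP-loaded (>95%) His-TEV-tagged KRAS 4B G12C (residues 1–169), 5 μM in TBS pH 7.4, incubated with 10 μM compound (4% DMSO) at 22° C for one hour. Intact-protein LC-MS gave free:adduct ratios, reported as percent protein modified; duplicate runs.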

| Compound | % CAF 10 uM @ 60 min [%] |
| --- | --- |
| C=CC(=O)N1CCN(c2nc(=O)n3c4c(c(-c5cc(Cl)c(F)cc5F)c(C(F)(F)F)cc24)SC[C@@H]3CN2C[C@@H]3C[C@H]2CO3)CC1 (atropisomer, axis not shown) [Example 1341, (3S,10R)-3-(((1S,4S)-2-oxa-5-azabicyclo[2.2.1]heptan-5-yl)methyl)-7-(4-acryloylpiperazin-1-yl)-10-(5-chloro-2,4-difluorophenyl)-9-(trifluoromethyl)-2,3-dihydro-5H-[1,4]thiazino[2,3,4-ij]quinazolin-5-one] | 97.4 |
| C=CC(=O)N1CCN(c2nc(=O)n3c4c(c(-c5cc(Cl)c(F)cc5F)c(C(F)(F)F)cc24)SC[C@@H]3CN2C[C@@H]3C[C@H]2CO3)CC1 (atropisomer, axis not shown) [Example 1342, (3S,10S)-3-(((1S,4S)-2-oxa-5-azabicyclo[2.2.1]heptan-5-yl)methyl)-7-(4-acryloylpiperazin-1-yl)-10-(5-chloro-2,4-difluorophenyl)-9-(trifluoromethyl)-2,3-dihydro-5H-[1,4]thiazino[2,3,4-ij]quinazolin-5-one] | 44.1 |
| C=CC(=O)N1[C@H](C)CN(c2nc(=O)n3c4c(c(-c5ccc(F)cc5F)c(C(F)(F)F)cc24)SC[C@@H]3CN2CCN(C3CC3)CC2)C[C@@H]1C (atropisomer, axis not shown) [Example 1346, (3S,10R)-7-((3S,5R)-4-acryloyl-3,5-dimethylpiperazin-1-yl)-3-((4-cyclopropylpiperazin-1-yl)methyl)-10-(2,4-difluorophenyl)-9-(trifluoromethyl)-2,3-dihydro-5H-[1,4]thiazino[2,3,4-ij]quinazolin-5-one] | 96.9 |
| C=CC(=O)N1[C@H](C)CN(c2nc(=O)n3c4c(c(-c5ccc(F)cc5F)c(C(F)(F)F)cc24)SC[C@@H]3CN2CCN(C3CC3)CC2)C[C@@H]1C (atropisomer, axis not shown) [Example 1347, (3S,10S)-7-((3S,5R)-4-acryloyl-3,5-dimethylpiperazin-1-yl)-3-((4-cyclopropylpiperazin-1-yl)methyl)-10-(2,4-difluorophenyl)-9-(trifluoromethyl)-2,3-dihydro-5H-[1,4]thiazino[2,3,4-ij]quinazolin-5-one] | 89.7 |
| C=CC(=O)N1[C@H](C)CN(c2nc(=O)n3c4c(c(-c5cc(Cl)c(F)cc5F)c(C(F)(F)F)cc24)SC[C@@H]3CN2CCN(C3CC3)CC2)C[C@@H]1C (atropisomer, axis not shown) [Example 1348, (3S,10R)-7-((3S,5R)-4-acryloyl-3,5-dimethylpiperazin-1-yl)-10-(5-chloro-2,4-difluorophenyl)-3-((4-cyclopropylpiperazin-1-yl)methyl)-9-(trifluoromethyl)-2,3-dihydro-5H-[1,4]thiazino[2,3,4-ij]quinazolin-5-one] | 94.4 |
| C=CC(=O)N1[C@H](C)CN(c2nc(=O)n3c4c(c(-c5cc(Cl)c(F)cc5F)c(C(F)(F)F)cc24)SC[C@@H]3CN2CCN(C3CC3)CC2)C[C@@H]1C (atropisomer, axis not shown) [Example 1349, (3S,10S)-7-((3S,5R)-4-acryloyl-3,5-dimethylpiperazin-1-yl)-10-(5-chloro-2,4-difluorophenyl)-3-((4-cyclopropylpiperazin-1-yl)methyl)-9-(trifluoromethyl)-2,3-dihydro-5H-[1,4]thiazino[2,3,4-ij]quinazolin-5-one] | 86.9 |
| C=CC(=O)N1CCN(c2nc(=O)n3c4c(c(-c5cc(Cl)c(F)cc5F)c(C(F)(F)F)cc24)SC[C@@H]3CN2CCN(C3CC3)CC2)CC1 (atropisomer, axis not shown) [Example 1355, (3S,10R)-7-(4-acryloylpiperazin-1-yl)-10-(5-chloro-2,4-difluorophenyl)-3-((4-cyclopropylpiperazin-1-yl)methyl)-9-(trifluoromethyl)-2,3-dihydro-5H-[1,4]thiazino[2,3,4-ij]quinazolin-5-one] | 99.2 |
| C=CC(=O)N1CCN(c2nc(=O)n3c4c(c(-c5cc(Cl)c(F)cc5F)c(C(F)(F)F)cc24)SC[C@@H]3CN2CCN(C3CC3)CC2)CC1 (atropisomer, axis not shown) [Example 1356, (3S,10S)-7-(4-acryloylpiperazin-1-yl)-10-(5-chloro-2,4-difluorophenyl)-3-((4-cyclopropylpiperazin-1-yl)methyl)-9-(trifluoromethyl)-2,3-dihydro-5H-[1,4]thiazino[2,3,4-ij]quinazolin-5-one] | 92.8 |
| C=CC(=O)N1[C@H](C)CN(c2nc(=O)n3c4c(c(-c5cc(Cl)c(F)cc5F)c(C(F)(F)F)cc24)SCC2(COC2)C3)C[C@@H]1C (atropisomer, axis not shown) [Example 1361a, (R)-8′-((3S,5R)-4-acryloyl-3,5-dimethylpiperazin-1-yl)-11′-(5-chloro-2,4-difluorophenyl)-10′-(trifluoromethyl)-2′H,4′H,6′H-spiro[oxetane-3,3′-[1,4]thiazepino[2,3,4-ij]quinazolin]-6′-one] | 93.3 |
| C=CC(=O)N1[C@H](C)CN(c2nc(=O)n3c4c(c(-c5cc(Cl)c(F)cc5F)c(C(F)(F)F)cc24)SCC2(COC2)C3)C[C@@H]1C (atropisomer, axis not shown) [Example 1361b] | 71.4 |
| C=CC(=O)N1CCN(c2nc(=O)n3c4c(c(-c5cc(Cl)c(F)cc5F)c(C(F)(F)F)cc24)SC[C@@H]3COCOC)CC1 (atropisomer, axis not shown) [Example 1364] | 98 |
| C=CC(=O)N1CCN(c2nc(=O)n3c4c(c(-c5cc(Cl)c(F)cc5F)c(C(F)(F)F)cc24)SC[C@@H]3COCOC)CC1 (atropisomer, axis not shown) [Example 1365] | 83.7 |
| C=CC(=O)N1[C@H](C)CN(c2nc(=O)n3c4c(c(-c5ccc(F)c6cnn(C)c56)c(C(F)(F)F)cc24)SC[C@@H]3COC)C[C@@H]1C (atropisomer, axis not shown) [Example 1366a, (3S,10S)-7-((3S,5R)-4-acryloyl-3,5-dimethylpiperazin-1-yl)-10-(4-fluoro-1-methyl-1H-indazol-7-yl)-3-(methoxymethyl)-9-(trifluoromethyl)-2,3-dihydro-5H-[1,4]thiazino[2,3,4-ij]quinazolin-5-one] | 46.8 |
| C=CC(=O)N1CCN(c2nc(=O)n3c4c(c(-c5ccc(F)cc5F)c(C(F)(F)F)cc24)SC[C@@H]3COCOC)CC1 (atropisomer, axis not shown) [Example 1367, (3S,10R)-7-(4-acryloylpiperazin-1-yl)-10-(2,4-difluorophenyl)-3-((methoxymethoxy)methyl)-9-(trifluoromethyl)-2,3-dihydro-5H-[1,4]thiazino[2,3,4-ij]quinazolin-5-one] | 92.4 |
| C=CC(=O)N1[C@H](C)CN(c2nc(=O)n3c4c(c(-c5cc(Cl)c(F)cc5F)c(C(F)(F)F)cc24)SC[C@@H]3COCOC)C[C@@H]1C (atropisomer, axis not shown) [Example 1369] | 64.6 |
| C=CC(=O)N1[C@H](C)CN(c2nc(=O)n3c4c(c(-c5cc(Cl)c(F)cc5F)c(C(F)(F)F)cc24)SC[C@@H]3COCOC)C[C@@H]1C (atropisomer, axis not shown) [Example 1370, (3S,10R)-7-((3S,5R)-4-acryloyl-3,5-dimethylpiperazin-1-yl)-10-(5-chloro-2,4-difluorophenyl)-3-((methoxymethoxy)methyl)-9-(trifluoromethyl)-2,3-dihydro-5H-[1,4]thiazino[2,3,4-ij]quinazolin-5-one] | 94.4 |
